Measured values reported in publication PMC5698418 (Nature Communications, 2017).
Where a name gives a salt, the structure may show the parent alone. Read-outs that look alike come from different tables or passages of the source.

System: BDNF-induced nuclear Arc expression in primary cortical neurons
Experiment: Chemogenomic screen: high-content image-based assay of BDNF-induced nuclear Arc expression (96-well)
Assay type: cell-based, mouse
Description: To increase the throughput of our pharmacological screening for modulators of Arc, the above mentioned assay was adapted to cultures of mouse primary cortical neurons in 96-well plates.
All 319 compounds were initially tested at a final concentration of 16.7 µM with three biological replicates.
Screening of compounds in the chemogenomic library was carried out using DIV13 primary forebrain cortical neurons cultured on poly-L-lysine/laminin-coated 96-well plates (Ibidi USA, Madison, WI). Cells were seeded at a density of 30,000 cells per well and treated with the compound library and BDNF according to the experimental design presented in Fig. 3a. After experimental treatment, cells were processed for Arc and acetyl-H3K9 immunocytochemistry according to the protocol described above. Both antigens (Arc and acetyl-H3K9) were imaged using an IN Cell Analyzer 6000 imaging system and a ×40 objective. […] High-throughput quantification of nuclear Arc immunofluorescence signal was performed in a similar fashion than the low-throughput procedure described above but with the exception that acetyl-H3K9 was used as a nuclear mask to guide the automated quantification of nuclear Arc immunofluorescence signal.

[1] = chemogenomic (SMART) screen, BDNF-induced nuclear Arc expression, primary cortical neurons, BDNF control 19.5
[2] = nuclear Arc-positive cells relative to DMSO + BDNF control, negative values = decrease
[3] = BDNF-induced nuclear Arc expression, primary cortical neurons, chemogenomic screen
[4] = nuclear Arc-positive cells relative to DMSO control (BDNF), negative = decrease

Compound	Percentage of cell with nuclear Arc immunostaining above 2σ threshold [1]	Fold-change — Normalized to DMSO control (BDNF) [2]	Percentage of cell with nuclear Arc immunostaining above 2σ threshold [3]	further results
O=C(O)CCCNC(=O)c1cccnc1 [Pikamilone]	38.6%	2.0 fold	–	–
O=C(CCCN1CCC2(CC1)C(=O)NCN2c1ccccc1)c1ccc(F)cc1 [Spiperone]	23.6%	1.2 fold	–	–
C[C@]12COC(=O)C[C@@H]1CC[C@@H]1[C@@H]2CC[C@@]2(C)[C@H]1CC[C@]2(C)O [Oxandrolone]	–	1.7 fold	–	Percentage of cell with nuclear Arc immunostaining above 2σ threshold: 33.5%
O=c1[nH]c2ccccc2n1C1CCN(CCCC(c2ccc(F)cc2)c2ccc(F)cc2)CC1 [Pimozide]	–	–	1.1%	–
CCOc1ccccc1OC(c1ccccc1)C1CNCCO1 (stereo not drawn) [Reboxetine]	–	–	–	Percentage of cell with nuclear Arc immunostaining above 2σ threshold: 8.6%
CCOc1ccc(Cc2nccc3cc(OCC)c(OCC)cc23)cc1OCC [Ethaverine]	–	–	1.3%	–
COc1ccc2c3c1O[C@H]1C[C@@H](O)C=C[C@@]31CCN(C)C2 [Galantamine]	–	–	–	Percentage of cell with nuclear Arc immunostaining above 2σ threshold: 4.2%
Cc1c(-c2ccccc2)oc2c(C(=O)OCCN3CCCCC3)cccc2c1=O [Flavoxate]	–	–	3.1%	–
CN(C)CCOC(=O)COc1ccc(Cl)cc1.Cl [Meclofenoxate hydrochloride]	–	1.4 fold	–	Percentage of cell with nuclear Arc immunostaining above 2σ threshold: 28.2%
CC(C)C[C@H](CN)CC(=O)O [Pregabalin]	–	–	–	Percentage of cell with nuclear Arc immunostaining above 2σ threshold: 8.5%
CCOc1ccc2nc(S(N)(=O)=O)sc2c1 [Ethoxzolamide]	–	–	8.4%	–
O=c1[nH]c2cc(C(F)(F)F)c(N3CCOCC3)cc2n(CP(=O)(O)O)c1=O [Fanapanel]	–	–	8.8%	–
NC(=O)OCC(COC(N)=O)c1ccccc1 [Felbamate]	14.3%	–	–	–
Cc1cc2c(s1)Nc1ccccc1N=C2N1CCN(C)CC1 [Olanzapine]	–	–	–	Percentage of cell with nuclear Arc immunostaining above 2σ threshold: 19.4%
COc1cccc([C@H](O)C2CCN(CCc3ccc(F)cc3)CC2)c1OC [Volinanserin]	–	–	9.0%	–
CNS(=O)(=O)Cc1ccc2[nH]cc(CCN(C)C)c2c1 [Sumatriptan succinate]	23.4%	1.2 fold	–	–
CCC(C)C(CC)C(N)=O (stereo not drawn) [Valnoctamide]	24.6%	1.3 fold	–	–
CN(C)CCCN1c2ccccc2Sc2ccccc21 [Promazine]	–	–	9.7%	–
OC(CCN1CCCC1)(c1ccccc1)C1CCCCC1 (stereo not drawn) [Procyclidine hydrochloride]	19.3%	–	–	–
COc1cc2c(cc1OC)[C@@H]1Cc3ccc(OC)c(OC)c3CN1CC2 [Rotundine]	28.7%	1.5 fold	–	–

Compound	Percentage of cell with nuclear Arc immunostaining above 2σ threshold [1]	Fold-change — Normalized to DMSO control (BDNF) [2]	Percentage of cell with nuclear Arc immunostaining above 2σ threshold [3]	further results
CCN(CC)C(=O)C1(c2ccccc2)CC1CN (stereo not drawn) [Milnacipran]	13.2%	–	–	–
CC(C)C[C@H](NC(=O)[C@H](CCCCN)NC(=O)[C@H](CCCN=C(N)N)NC(=O)[C@H](C)NC(=O)[C@H](CO)NC(=O)[C@H](CCCCN)NC(=O)[C@H](CCCN=C(N)N)NC(=O)[C@H](C)NC(=O)CNC(=O)[C@@H](NC(=O)[C@H](Cc1ccccc1)NC(=O)CNC(=O)CNC(=O)[C@@H](N)Cc1ccccc1)[C@@H](C)O)C(=O)N[C@@H](C)C(=O)N[C@@H](CC(N)=O)C(=O)N[C@@H](CCC(N)=O)C(=O)O [Nociceptin]	–	1.1 fold	–	Percentage of cell with nuclear Arc immunostaining above 2σ threshold: 21.6%
CN(C)CCC(c1ccc(Cl)cc1)c1ccccn1 (stereo not drawn) [Chlorphenamine]	31.0%	1.6 fold	–	–
CN(C)CC/C=C1/c2ccccc2Sc2ccc(Cl)cc21 [Chlorprothixene]	–	–	1.0%	–
CN1CCN2c3ccccc3Cc3ccccc3C2C1 (stereo not drawn) [Mianserin]	18.5%	–	–	–
CN1CCN(CCCN2c3ccccc3Sc3ccc(Cl)cc32)CC1 [Prochlorperazine]	–	–	0.375%	–
Nc1cccc(-c2cc3c(Oc4cccc(O)c4)ncnc3[nH]2)c1 [TWS119]	33.9%	1.7 fold	–	–
CN1CCN2c3ncccc3Cc3ccccc3C2C1 (stereo not drawn) [Mirtazapine]	–	–	4.5%	–
CCN(CC)C(=O)/C(C#N)=C/c1cc(O)c(O)c([N+](=O)[O-])c1 [Entacapone]	27.9%	1.4 fold	–	–
N#Cc1ccccc1-c1cc(-c2ccccn2)cn(-c2ccccc2)c1=O [Perampanel]	–	–	–	Percentage of cell with nuclear Arc immunostaining above 2σ threshold: 12.4%
CN1CC2c3ccccc3Oc3ccc(Cl)cc3C2C1 (stereo not drawn) [Asenapine]	–	–	11.2%	–
O=C(/C=C/C=C/c1ccc2c(c1)OCO2)N1CCCCC1 [Piperine]	18.5%	–	–	–
CCOC(=O)c1ncn2c1CN(C)C(=O)c1cc(F)ccc1-2 [Flumazenil]	32.1%	1.6 fold	–	–
NC[C@H](CC(=O)O)c1ccc(Cl)cc1 [(R)-Baclofen]	31.8%	1.6 fold	–	–
CCN(CC)CCOC(=O)c1ccc(N)cc1 [Procaine hydrochloride]	37.1%	1.9 fold	–	–
COc1ccccc1C1(O)CCN(CCCn2c3ccccc3c3ccccc32)CC1 [NNC 05-2090]	–	–	–	Percentage of cell with nuclear Arc immunostaining above 2σ threshold: 0.0%; Fold-change — Normalized to DMSO control (BDNF) [4]: 0.0 fold
CCSc1ccc2c(c1)N(CCCN1CCN(C)CC1)c1ccccc1S2 [Thiethylperazine]	–	–	0.529%	–
OC[C@H]1O[C@@H](OCCc2ccc(O)cc2)[C@H](O)[C@@H](O)[C@@H]1O [Salidroside]	30.7%	1.6 fold	–	–
Cn1sc(=O)n(Cc2ccccc2)c1=O [TDZD-8]	–	–	1.7%	Fold-change — Normalized to DMSO control (BDNF) [4]: -11.7 fold
Dihydroergotoxine mesylate	24.3%	1.2 fold	–	–

Compound	Percentage of cell with nuclear Arc immunostaining above 2σ threshold [1]	Fold-change — Normalized to DMSO control (BDNF) [2]	Percentage of cell with nuclear Arc immunostaining above 2σ threshold [3]	further results
CCOC(=O)[C@H](CCc1ccccc1)N[C@@H](C)C(=O)N1CCC[C@H]1C(=O)O [Enalapril]	22.4%	1.1 fold	–	–
CNC1(C)C2CCC(C2)C1(C)C (stereo not drawn) [Mecamylamine]	–	–	11.9%	–
CN(C)CCC=C1c2ccccc2CCc2ccccc21 [Amitriptyline]	12.3%	–	–	–
CN1[C@@H]2CC[C@H]1C[C@@H](OC(=O)c1c[nH]c3ccccc13)C2 [Tropisetron]	28.5%	1.5 fold	–	–
O=C(CCCN1CCC(n2c(O)nc3ccccc32)CC1)c1ccc(F)cc1 [Benperidol]	18.9%	–	–	–
CCN(CC)CCNC(=O)c1cc(Br)c(N)cc1OC [Bromopride]	27.7%	1.4 fold	–	–
C[S+](CC[C@H](N)C(=O)[O-])C[C@H]1O[C@@H](n2cnc3c(N)ncnc32)[C@H](O)[C@@H]1O (stereo partly drawn) [S-Adenosylmethionine]	12.8%	–	–	–
Cc1nccn1CC1CCc2c(c3ccccc3n2C)C1=O (stereo not drawn) [Ondansetron]	37.6%	1.9 fold	–	–
COC1=CC(=O)O[C@@H](/C=C/c2ccccc2)C1 [Kavain]	–	1.8 fold	–	Percentage of cell with nuclear Arc immunostaining above 2σ threshold: 34.3%
CCCC(CCC)C(=O)O [Valproate]	–	–	8.4%	–
COc1ccc(/C=C/c2cc(OC)cc(=O)o2)cc1 [Yangonin]	29.7%	1.5 fold	–	–
Cc1ccc(Sc2ccccc2N2CCNCC2)c(C)c1 [Vortioxetine]	–	–	0.0%	–
Oc1ccc(/C=C/c2cc(O)cc(O)c2)cc1 [Resveratrol]	36.0%	1.8 fold	–	–
CC[C@@H](C(N)=O)N1CCCC1=O [Levetiracetam]	–	–	7.9%	–
CC(=O)NCCCS(=O)(=O)O [Acamprosate]	–	–	–	Percentage of cell with nuclear Arc immunostaining above 2σ threshold: 9.4%
CN1CCN(CCCN2c3ccccc3Sc3ccc(C(F)(F)F)cc32)CC1 [Trifluoperazine]	–	–	0.0%	–
COc1ccc(C(CN(C)C)C2(O)CCCCC2)cc1 (stereo not drawn) [Venlafaxine]	–	–	–	Percentage of cell with nuclear Arc immunostaining above 2σ threshold: 12.1%
NC(=O)c1cn(Cc2c(F)cccc2F)nn1 [Rufinamide]	20.3%	1.0 fold	–	–
